Experimental findings from ChEMBL document CHEMBL3862040, “Identification, Synthesis, and Biological Evaluation of the Major Human Metabolite of NLRP3 Inflammasome Inhibitor MCC950” (ACS Med Chem Lett, 2016) are described below.

In data set [1] the target is NACHT, LRR and PYD domains-containing protein 3 (Homo sapiens, UniProt Q96P20). The data set can be described thus: Inhibition of NLRP3 inflammasome in LPS-stimulated human monocyte derived macrophages assessed as reduction in NLRP3 inflammasome-induced IL-1beta production preincubated for 30 mins followed by NLRP3 stimulation with ATP for 1 hr by ELISA.
Chain of NACHT, LRR and PYD domains-containing protein 3 (Q96P20 whole entry, the tested form may be a part): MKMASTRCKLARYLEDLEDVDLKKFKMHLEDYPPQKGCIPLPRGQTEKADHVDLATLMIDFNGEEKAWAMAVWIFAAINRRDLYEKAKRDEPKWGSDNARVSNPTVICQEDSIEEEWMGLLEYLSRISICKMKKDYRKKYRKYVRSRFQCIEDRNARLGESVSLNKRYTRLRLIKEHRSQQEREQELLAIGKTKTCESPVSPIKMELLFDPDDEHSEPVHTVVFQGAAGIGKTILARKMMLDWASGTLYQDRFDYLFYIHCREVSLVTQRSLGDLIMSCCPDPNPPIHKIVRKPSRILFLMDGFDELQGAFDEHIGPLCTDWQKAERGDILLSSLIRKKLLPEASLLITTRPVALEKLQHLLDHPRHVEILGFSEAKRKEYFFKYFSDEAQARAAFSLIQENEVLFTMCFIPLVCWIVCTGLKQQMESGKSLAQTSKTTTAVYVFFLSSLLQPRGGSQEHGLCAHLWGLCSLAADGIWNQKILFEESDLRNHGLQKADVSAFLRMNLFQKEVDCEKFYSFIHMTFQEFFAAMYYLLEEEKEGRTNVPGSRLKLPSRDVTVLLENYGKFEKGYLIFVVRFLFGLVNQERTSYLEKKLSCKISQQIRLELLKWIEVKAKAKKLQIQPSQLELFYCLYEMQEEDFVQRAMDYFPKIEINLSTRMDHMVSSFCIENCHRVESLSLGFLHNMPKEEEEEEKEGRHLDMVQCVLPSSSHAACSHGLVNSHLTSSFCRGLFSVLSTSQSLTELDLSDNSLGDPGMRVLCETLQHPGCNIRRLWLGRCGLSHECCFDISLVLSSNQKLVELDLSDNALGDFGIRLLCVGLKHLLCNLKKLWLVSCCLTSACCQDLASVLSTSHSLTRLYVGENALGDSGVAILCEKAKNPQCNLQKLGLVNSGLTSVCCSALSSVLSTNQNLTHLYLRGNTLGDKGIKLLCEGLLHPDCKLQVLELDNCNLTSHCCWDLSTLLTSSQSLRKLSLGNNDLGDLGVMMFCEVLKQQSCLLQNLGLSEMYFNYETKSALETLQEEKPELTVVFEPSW
The nature of data set [2]: Drug level in human liver microsomes treated with 5 uM MCC950 preincubated for 20 mins followed by NADPH addition measured after 120 mins by HPLC/ESI-SRM-MS/MS analysis. It counts as ADME. The note with it: 2 h.
A short description of data set [3]: Drug level in human liver microsomes treated with 5 uM MCC950 preincubated for 20 mins followed by NADPH addition measured after 120 mins by QTOF-ESI-MS/MS analysis. Type of data set: ADME. The note with it: 2 h.
The nature of data set [4]: Drug metabolism in human liver microsomes assessed as R-(+)- N-((1-hydroxy-1,2,3,5,6,7-hexahydro-s-indacen-4-yl)carbamoyl)-4-(2-hydroxypropan-2-yl)furan-2-sulfonamide formation at 5 uM preincubated for 20 mins followed by NADPH addition measured after 120 mins by QTOF-ESI-MS/MS analysis. Type of data set: ADME. As to conditions: 2 h.
Data set [5] is described as follows: Cytotoxicity against human HepG2 cells assessed as decrease in cell viability after 20 hrs by resazurin based fluorescence assay. It counts as toxicity.
Data set [6] is described as follows: Drug metabolism in human liver microsomes assessed as N-((1-hydroxy-1,2,3,5,6,7-hexahydro-s-indacen-4-yl)carbamoyl)-4-(2-hydroxypropan-2-yl)furan-2-sulfonamide formation at 5 uM preincubated for 20 mins followed by NADPH addition measured after 120 mins by HPLC/ESI-SRM-MS/MS analysis. It counts as ADME. As to conditions: 2 h.
The nature of data set [7]: Cytotoxicity against human HEK293 cells assessed as decrease in cell viability after 20 hrs by resazurin based fluorescence assay. Type of data set: toxicity.
Data set [8] is described as follows: Drug metabolism in human liver microsomes assessed as R-(+)- N-((1-hydroxy-1,2,3,5,6,7-hexahydro-s-indacen-4-yl)carbamoyl)-4-(2-hydroxypropan-2-yl)furan-2-sulfonamide formation at 5 uM preincubated for 20 mins followed by NADPH addition measured after 120 mins by HPLC/ESI-SRM-MS/MS analysis. Type of data set: ADME. The note with it: 2 h.

In the case of `CC(C)(O)c1coc(S(=O)(=O)NC(=O)Nc2c3c(cc4c2CC[C@H]4O)CCC3)c1`, the IC50 in data set [1] turned out to be 1.24 µM. In addition, the Drug metabolism result in data set [2] and in data set [3] was “Metabolite_Detected” in each case.
With `CC(C)(O)c1coc(S(=O)(=O)NC(=O)Nc2c3c(cc4c2CC[C@@H]4O)CCC3)c1`, in data set [1], the IC50 came to 6.35 µM.
For the molecule `CC(C)(O)c1coc(S(=O)(=O)NC(=O)Nc2c3c(cc4c2CCC4)CCC3)c1`, the Drug metabolism entry in data set [4], in data set [6] and in data set [8] was “Metabolite_Detected” throughout. The cytotoxic concentration (CC50) at 20 h in data set [5] and in data set [7] was above 62.5 µM throughout.
In the case of `CC(C)(O)c1coc(S(=O)(=O)NC(=O)Nc2c3c(cc4c2CCC4O)CCC3)c1` (racemic), the IC50 in data set [1] came out at 1.97 µM. In addition, the Drug metabolism result in data set [2] was “Metabolite_Detected”. The CC50 at 20 h in data set [5] and in data set [7] was above 62.5 µM each time.
As to `CC(C)(O)c1coc(S(=O)(=O)NC(=O)Nc2c3c(cc4c2CC(O)C4)CCC3)c1` (centres undefined), the IC50 in data set [1] is 1.83 µM. Also, the CC50 at 20 h in data set [5] and in data set [7] was above 62.5 µM in each case.
On to `CC(C)(O)c1coc(S(=O)(=O)NC(=O)Nc2c3c(cc4c2C(O)CC4)CCC3)c1` (racemic), for which the IC50 in data set [1] was determined as 0.232 µM. The CC50 at 20 h in data set [5] and in data set [7] was above 62.5 µM each time.
